Results from US20240182941A1, “XYLOSYLATED STEVIOL GLYCOSIDES AND ENZYMATIC METHODS FOR PRODUCTION” (CARGILL, INCORPORATED, priority 2021, published 2024).
Values joined by “and” are separate entries in the source; they are usually repeats but may differ in a detail not shown here. Equal entries are not always repeated.

Tests used:
[1] = system: purified protein of SEQ ID NO:1; experiment: Time course of glycosylation of Reb A using SEQ ID NO:1 and activated sugars; format: biochemical, Oryza sativa Japonica Group
Method: (§1) Bioconversion reaction was carried out in a total of 100 uL sealed vials containing the Tris buffer, 0.1 μmoles of SG acceptor, 0.2 μmoles of activated sugar donor, 1 μmoles of sucrose and 2 ug protein of the enzymes. To each vial, buffer, sucrose, UDP-sugar donor, and SG acceptor were added in that order before finally the enzymes were added. For each SG donor, a control was included to contain the same amounts of sucrose and enzymes without UDP-sugar donors. After hand mixing, the vials were placed in a temperature-controlled shaker set at 30C and 100 rpm in rotating motion for 96 hours (4 days).
(§2) After 4 days of reaction, 0.9 mL of 80% acetonitrile was added to each vial and the resulting samples were analyzed in LC/MS. Xylose modification of the -19C(O)-β-Glc residue was confirmed.
The ability of SEQ ID NO:1 to glycosylate Reb A with different activated sugars used at different concentrations was examined, with the reaction products formed being measured over the course of the reaction.
Purified protein of SEQ ID NO:1 was used with UDP-glucose, UDP-xylose, and UDP-rhamnose di-sodium salts, and the reagents and reaction conditions were as described in Example 1.

[2] = cited from earlier work
[3] = system: glycosyltransferase polypeptide of SEQ ID NO:1; experiment: SG bioconversion with UDP-xylose using enzyme of SEQ ID NO:1; format: biochemical, Oryza sativa Japonica Group; conditions: enzyme SEQ ID NO:1, 2 ug protein, 96 hours, 30C, runs 1 and 2
Method: (§3) Six steviolglycoside (SG) ‘acceptors’ Reb A, B, C, D, M and stevioside were tested using 2 glucosyltransferase enzymes (SEQ ID NO:1 and UGT76G1) known to play key roles in SG biosynthesis in stevia leaves and activated xylose (UDP-xylose).
(§4) UDP-xylose (98.9% purity) and UDP-rhamnose di-sodium salt (95% purity) were purchased from BOC Sciences. The activated sugar donors were prepared to 10 mM concentration with 0.05 M tris buffer and stored according to manufacturers' recommendations before use.
(§5) Enzyme of SEQ ID NO:1 and UGT76G1 enzyme were prepared in E. coli host cells as tagged proteins with expression induced by a chemical inducer. Following induction, the cells were incubated overnight and harvested. The cells were then lysed (either through sonication, mechanical disruption or chemical lysis) and the proteins purified through chromatography and stored frozen at −20C till use. Enzyme activities were confirmed using UDP-glucose in a preliminary test. Frozen enzyme solution was thawed right before use and returned to frozen storage after use.
(§6) SG materials were obtained from various sources with 90%+ purities. All SG materials were prepared at 20 mM with 90% DMSO and stored at ambient temperature. Final DMSO concentration in the reaction mixture was 4.5%.
(§7) Sucrose, previously shown to have a stabilizing effect on the bioconversion reaction, was prepared at 0.1 M with 0.05 M tris buffer.
(§8) Tris (tris(hydroxymethyl)aminomethane) buffer was prepared at 0.05 M, pH 7.3 and contained 3 mM each of MgCl2 and MnCl2 as co-factors.
as §1, §2

UGT76G1 = target: T1, UGT76G1 (Stevia rebaudiana, UniProt Q6VAB4); experiment: SG bioconversion with UDP-xylose using UGT76G1; format: biochemical; conditions: enzyme UGT76G1, 2 ug protein, 96 hours, 30C, runs 1 and 2
T1 construct: unspecified tag; made in house; host or cells: E. coli
T1 sequence (Q6VAB4 1-458): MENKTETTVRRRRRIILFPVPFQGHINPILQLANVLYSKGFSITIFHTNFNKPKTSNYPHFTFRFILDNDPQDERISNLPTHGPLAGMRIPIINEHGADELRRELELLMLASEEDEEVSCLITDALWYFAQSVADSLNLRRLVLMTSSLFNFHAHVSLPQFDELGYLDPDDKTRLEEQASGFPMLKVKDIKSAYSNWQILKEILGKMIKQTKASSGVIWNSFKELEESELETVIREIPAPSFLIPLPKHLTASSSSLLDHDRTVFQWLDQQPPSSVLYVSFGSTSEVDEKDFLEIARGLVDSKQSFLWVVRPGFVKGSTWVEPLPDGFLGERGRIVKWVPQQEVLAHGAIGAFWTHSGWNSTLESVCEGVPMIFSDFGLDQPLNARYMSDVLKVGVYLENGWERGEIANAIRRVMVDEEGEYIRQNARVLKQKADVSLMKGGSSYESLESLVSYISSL
Method: as §3, §4, §5, §6, §7, §8, §1, §2

C=C1C[C@@]23CC[C@H]4[C@@](C)(CCC[C@@]4(C)C(=O)O[C@@H]4O[C@H](CO)[C@@H](O)[C@H](O)[C@H]4O)[C@@H]2CC[C@]1(O[C@@H]1O[C@H](CO)[C@@H](O)[C@H](O[C@@H]2O[C@H](CO)[C@@H](O)[C@H](O)[C@H]2O)[C@H]1O[C@@H]1O[C@H](CO)[C@@H](O)[C@H](O)[C@H]1O)C3 [Reb A, rebaudioside A]
glucosylation and xylosylation plateaued after ([1]; 1 mM activated sugars): 20 min
Rhamnosylation using UDP-rhamnose compared with glucosylation and xylosylation ([1]; 2 mM activated sugars): significantly lower
glucosylation and xylosylation plateaued after ([1]; 2 mM activated sugars): 20 min
% Reb A bioconversion ([1]; UDP-Glucose (1 mM), 0 hours): 0%
% Reb A bioconversion ([1]; UDP-Glucose (1 mM), 18 hours): 68.47%
% Reb A bioconversion ([1]; UDP-Glucose (1 mM), 48 hours): 68.6%
% Reb A bioconversion ([1]; UDP-Glucose (1 mM), 96 hours): 68.1%
% Reb A bioconversion ([1]; UDP-Glucose (2 mM), 0 hours): 0%
% Reb A bioconversion ([1]; UDP-Glucose (2 mM), 18 hours): 84.93%
% Reb A bioconversion ([1]; UDP-Glucose (2 mM), 48 hours): 83.9%
% Reb A bioconversion ([1]; UDP-Glucose (2 mM), 96 hours): 82.1%
% Reb A bioconversion ([1]; UDP-Rhamnose (2 mM), 0 hours): 0%
% Reb A bioconversion ([1]; UDP-Rhamnose (2 mM), 18 hours): 14.7%
% Reb A bioconversion ([1]; UDP-Rhamnose (2 mM), 48 hours): 25%
% Reb A bioconversion ([1]; UDP-Rhamnose (2 mM), 96 hours): 30%
% Reb A bioconversion ([1]; UDP-Xylose (1 mM), 0 hours): 0%
% Reb A bioconversion ([1]; UDP-Xylose (1 mM), 18 hours): 60.09%
% Reb A bioconversion ([1]; UDP-Xylose (1 mM), 48 hours): 60.39%
% Reb A bioconversion ([1]; UDP-Xylose (1 mM), 96 hours): 60.66%
% Reb A bioconversion ([1]; UDP-Xylose (2 mM), 0 hours): 0%
% Reb A bioconversion ([1]; UDP-Xylose (2 mM), 18 hours): 83.26%
% Reb A bioconversion ([1]; UDP-Xylose (2 mM), 48 hours): 83.5%
% Reb A bioconversion ([1]; UDP-Xylose (2 mM), 96 hours): 82.33%
sweetness relative to sucrose ([2]; times sweeter than sucrose): 250-300 times

C=C1C[C@@]23CC[C@H]4[C@@](C)(CCC[C@@]4(C)C(=O)O[C@@H]4O[C@H](CO)[C@@H](O)[C@H](O[C@@H]5O[C@H](CO)[C@@H](O)[C@H](O)[C@H]5O)[C@H]4O[C@@H]4O[C@H](CO)[C@@H](O)[C@H](O)[C@H]4O)[C@@H]2CC[C@]1(O[C@@H]1O[C@H](CO)[C@@H](O)[C@H](O[C@@H]2O[C@H](CO)[C@@H](O)[C@H](O)[C@H]2O)[C@H]1O[C@@H]1O[C@H](CO)[C@@H](O)[C@H](O)[C@H]1O)C3 [Reb M, Rebaudioside M]
% SG bioconversion with UDP-xylose [3]: 0%
% SG bioconversion with UDP-xylose (UGT76G1): 0%

C=C1C[C@@]23CC[C@H]4[C@@](C)(CCC[C@@]4(C)C(=O)O[C@@H]4O[C@H](CO)[C@@H](O)[C@H](O)[C@H]4O)[C@@H]2CC[C@]1(O[C@@H]1O[C@H](CO)[C@@H](O)[C@H](O)[C@H]1O[C@@H]1O[C@H](CO)[C@@H](O)[C@H](O)[C@H]1O)C3 [Stevioside, stevioside]
% SG bioconversion with UDP-xylose [3]: 85.9% and 90.2%
% SG bioconversion with UDP-xylose ([3]; listed as stevioside): very high conversion
% SG bioconversion with UDP-xylose (UGT76G1): 40.5% and 39.0%

rebaudioside C [Reb C]
% SG bioconversion with UDP-xylose (UGT76G1): 11.0% and 10.1%
sweetness relative to glucose ([2]; times sweeter than glucose): 30 times
